From paper PMC9011347, “Small-Molecule Inhibitors Targeting Lipolysis in Human Adipocytes” (Journal of the American Chemical Society, 2022)

Legend:
[1] = test system: c8 (mouse ATGL containing aa 60–146 of human ATGL); assay: TAG hydrolase assay, chimeric ATGL variants; format: biochemical, human and mouse; settings: variant c8, NG-497 (10 μM) or Atglistatin (10 μM)
Experimental: (§1) Figure 5 Analysis of chimeric proteins comprising human and mouse ATGL. (a) Schematic view of the minimal active domain of wild-type and chimeric ATGL variants (c1–c9). Nonidentical aa are indicated in blue and red for mouse and human ATGL, respectively. ATGL variants were expressed in Expi293 cells and TAG hydrolase activity was determined in cell lysates in the presence or absence of NG-497 (10 μM) and Atglistatin (10 μM), respectively. Inhibition of ATGL variants by respective inhibitors (tick mark) and lack of inhibition (cross) is indicated at the right edge. The expression of all ATGL variants was confirmed by Western blotting analysis (Figure S6). (b) Dose-dependent inhibition of human ATGL (aa 1–288) and c1 (human aa 1–158 and mouse aa 159–288) by NG-497. (c) Dose-dependent inhibition of mouse ATGL (aa 1–288) and c2 (mouse aa 1–158 and human aa 159–288) by Ai. IC50 values are shown in the insets. Data are presented as relative inhibition of respective DMSO controls and are indicated as mean ± SD. (d) 3D homology model of the minimal active domain of mouse ATGL (M1–L254) depicted as a cartoon. Residues 1–178 are in blue, and residues 179–254 are in gray. S47 and D166 comprising the active site are represented as green sticks. T101, C106, R109, N111, and S133 are colored in orange, A60, N68, I69, T93, C97, and T146 are colored in magenta. TEXT PRINTED IN THE PICTURE: (b) NG-497: IC50 [μM] (human): 1.3±0.1; IC50 [μM] (c1): 1.3±0.1 | (b) Ai: IC50 [μM] (human): n.det.; IC50 [μM] (c1): n.det. | (c) NG-497: IC50 [μM] (mouse): n.det.; IC50 [μM] (c2): n.det. | (c) Ai: IC50 [μM] (mouse): 2.5±0.3; IC50 [μM] (c2): 2.4±0.1 […]
We next generated variants by further stepwise humanization of c2. Variant c3 containing aa 1–23 of human ATGL was inhibited by Ai but not NG-497 (Figure 5a). […] Finally, variants of mouse ATGL containing aa 1–146 (c7) and 60–146 (c8) of human ATGL were inhibited by NG-497 but not Ai (Figure 5a).
(§2) Experimental details, materials, and methods
(§3) Expression of recombinant ATGL constructs and preparation of cell lysates. Expi293 cells were cultivated in Expi293 Expression Medium (GIBCO, Thermo Fisher Scientific, Waltham, USA) at standard conditions (37°C, 5% CO2, 95% humidified atmosphere, 125 rpm). DNA constructs containing ATGL from different species and chimeric ATGL variants in pcDNA3.1(+)myc-His C Vector were obtained from BioCat GmbH (Heidelberg, Germany). Cells were transfected with ExpiFectamine293 Transfection Kit (GIBCO) in Opti-Mem reduced serum medium (GIBCO) according to the manufacturer’s instructions. After 48 h, cells were harvested by centrifugation and washed three times with PBS. Cells were disrupted in buffer A (0.25 M sucrose, 1 mM EDTA, 1 mM dithiothreitol, 20µg/ml leupeptin, 2 µg/ml antipain, 1 µg/ml pepstatin, pH 7.0) by sonication (Virsonic 475, Virtis, Gardiner, USA). Nuclei and debris were removed by centrifugation at 1,000 g and 4°C for 10 min. Protein concentrations were determined using Bio-Rad protein assay (Bio-Rad 785, Bio-Rad Laboratories, Munich, Germany) using BSA as standard.
(§4) Expression and purification of mouse CGI-58. CGI-58 was expressed and purified as described 1. In brief, the coding sequence of mouse Cgi-58 was cloned into pHis-Sumo and co-transformed with the plasmid pTf16 expressing the chaperone Tig into E. coli BL21(DE3). Cells were cultured overnight at 37°C and 180 rpm in the presence of 40 µg/ml kanamycin and 34 µg/ml chloramphenicol. Thereafter, cells were transferred into fresh LB medium, grown until OD600 of 0.6, and expression was induced by the addition of 0.5 mM IPTG. After overnight incubation at 30°C, cells were harvested at 4,500 x g and 4°C for 20 min, washed in 1x PBS, and resuspended in lysis buffer (20 mM Tris/HCl pH 7.8, 300 mM NaCl, 30 mM imidazole, 0.1% IGEPAL CA-630, 3.5 mM β-mercaptoethanol, 20 µg/ml leupeptin, 2 µg/ml antipain and 1 µg/ml pepstatin). Cells were incubated with 1 […]

mouse ATGL C97F = target: T1, mouse ATGL C97F (Mus musculus, UniProt Q8BJ56, C97F); assay: TAG hydrolase assay, humanized mouse ATGL variants; format: biochemical; settings: variant C97F, NG-497 (10 μM) or Atglistatin (10 μM)
T1 construct: host or cells: Expi293 cells, cell lysate
Experimental: as §1
(§5) The region between aa 60 and 146 of human and mouse ATGL comprises 12 nonidentical aa. We generated 3D homology models for the minimal active domain of mouse ATGL to obtain more detailed insight into the topology of the relevant region (Figure 5d). Based on this model, aa T101, C106, R109, N111, and S133 locate at peripheral (loop) regions (indicated in orange, Figure 5d). […] For all other nonidentical aa (indicated in magenta, Figure 5d), we generated variants with single aa substitutions. The humanized variants A60V, N68K, T93I, and C97F were inactivated by Ai but not NG-497 (Figure 5a).
as §2, §3
as §4, with “min,” for “min, washed in 1x PBS, and resuspended in lysis buffer (20 mM Tris/HCl pH 7.8, 300 mM NaCl, 30 mM imidazole, 0.1% IGEPAL CA-630, 3.5 mM β-mercaptoethanol, 20 µg/ml leupeptin, 2 µg/ml antipain and 1 µg/ml pepstatin). Cells were incubated with 1”

mouse ATGL A60V = target: T2, mouse ATGL A60V (Mus musculus, UniProt Q8BJ56, A60V); assay: TAG hydrolase assay, humanized mouse ATGL variants; format: biochemical; settings: variant A60V, NG-497 (10 μM) or Atglistatin (10 μM)
T2 construct: host or cells: Expi293 cells, cell lysate
Experimental: as §1, §5, §2, §3
as §4, with “min,” for “min, washed in 1x PBS, and resuspended in lysis buffer (20 mM Tris/HCl pH 7.8, 300 mM NaCl, 30 mM imidazole, 0.1% IGEPAL CA-630, 3.5 mM β-mercaptoethanol, 20 µg/ml leupeptin, 2 µg/ml antipain and 1 µg/ml pepstatin). Cells were incubated with 1”

mouse ATGL T93I = target: T3, mouse ATGL T93I (Mus musculus, UniProt Q8BJ56, T93I); assay: TAG hydrolase assay, humanized mouse ATGL variants; format: biochemical; settings: variant T93I, NG-497 (10 μM) or Atglistatin (10 μM)
T3 construct: host or cells: Expi293 cells, cell lysate
Experimental: as §1, §5, §2, §3
as §4, with “min,” for “min, washed in 1x PBS, and resuspended in lysis buffer (20 mM Tris/HCl pH 7.8, 300 mM NaCl, 30 mM imidazole, 0.1% IGEPAL CA-630, 3.5 mM β-mercaptoethanol, 20 µg/ml leupeptin, 2 µg/ml antipain and 1 µg/ml pepstatin). Cells were incubated with 1”

mouse ATGL N68K = target: T4, mouse ATGL N68K (Mus musculus, UniProt Q8BJ56, N68K); assay: TAG hydrolase assay, humanized mouse ATGL variants; format: biochemical; settings: variant N68K, NG-497 (10 μM) or Atglistatin (10 μM)
T4 construct: host or cells: Expi293 cells, cell lysate
Experimental: as §1, §5, §2, §3
as §4, with “min,” for “min, washed in 1x PBS, and resuspended in lysis buffer (20 mM Tris/HCl pH 7.8, 300 mM NaCl, 30 mM imidazole, 0.1% IGEPAL CA-630, 3.5 mM β-mercaptoethanol, 20 µg/ml leupeptin, 2 µg/ml antipain and 1 µg/ml pepstatin). Cells were incubated with 1”

T1 sequence (Q8BJ56 whole entry C97F): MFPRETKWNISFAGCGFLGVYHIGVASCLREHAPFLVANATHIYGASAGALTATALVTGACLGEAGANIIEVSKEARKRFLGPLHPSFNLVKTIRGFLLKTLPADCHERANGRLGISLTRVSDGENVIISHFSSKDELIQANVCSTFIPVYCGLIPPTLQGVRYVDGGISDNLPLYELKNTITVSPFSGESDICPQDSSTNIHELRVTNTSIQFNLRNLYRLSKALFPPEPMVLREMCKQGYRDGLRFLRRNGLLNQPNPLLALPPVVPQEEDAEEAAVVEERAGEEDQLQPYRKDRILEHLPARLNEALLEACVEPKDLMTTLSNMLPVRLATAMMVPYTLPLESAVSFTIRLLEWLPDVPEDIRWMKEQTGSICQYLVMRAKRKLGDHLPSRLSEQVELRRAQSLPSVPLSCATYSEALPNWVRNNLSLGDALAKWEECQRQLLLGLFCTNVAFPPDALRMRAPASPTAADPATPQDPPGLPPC
T2 sequence (Q8BJ56 whole entry A60V): as the sequence (Q8BJ56 whole entry C97F) above, with A60V, F97C counted along it
T4 sequence (Q8BJ56 whole entry N68K): as the sequence (Q8BJ56 whole entry C97F) above, with N68K, F97C counted along it
T3 sequence (Q8BJ56 whole entry T93I): as the sequence (Q8BJ56 whole entry C97F) above, with T93I, F97C counted along it

Structure (SMILES): CCOc1ccc(-c2cc(OC)cc(C(=O)OC(C)C)n2)cc1 [NG-497]
- inhibition of TAG hydrolase activity [1]: inhibited

Structure (SMILES): CN(C)C(=O)Nc1cccc(-c2ccc(N(C)C)cc2)c1 [Atglistatin, reference compound]
- inhibition of TAG hydrolase activity (mouse ATGL C97F): inactivated
- inhibition of TAG hydrolase activity (mouse ATGL A60V): inactivated
- inhibition of TAG hydrolase activity (mouse ATGL T93I): inactivated
- inhibition of TAG hydrolase activity (mouse ATGL N68K): inactivated
